Here are results for 6 molecules from patent US12559497B2, “Imidazopiperazine inhibitors of transcription activating proteins” (Board of Regents, The University of Texas System, priority 2020, dated 2026).

A short description of data set [1]: In vivo pharmacokinetics after a single dose, mouse. As to conditions: for clearance / half-life / Vd: plasma, Female CD-1 mice, single dose 0.2 or 0.3 mg/kg IV; for Vd: read-out: Vss. More on the design: species or system Female CD-1 Mice. Here is the method:
IV (intravenous) doses were formulated in 20% DMSO+60% PEG400+20% water. PO (per os) doses were formulated in 0.5% methylcellulose in water.
Mouse: Female mice (CD1 strain, purchased from Shanghai JH Laboratory Animal Co. LTD) weighing 20-30 g were used for studies. Food and water were available to all animals ad libitum. The test article was dosed via tail vein (IV doses) or oral gavage (PO doses), respectively. Blood samples were collected from all animals at predose and at 0.083, 0.25, 0.5, 1, 2, 4, 8, and 24 h postdose into tubes containing the anticoagulant K2EDTA (3 animals per time point with 3 time points collected per animal). Plasma was separated from the blood by centrifugation at 4° C. and stored at −70° C. until analysis. Test article concentrations in plasma were quantified using a liquid chromatography with tandem mass spectrometry (LC-MS/MS) method.

Data set [2] is described as follows: Metabolic stability in human liver microsomes. The conditions noted are these: pH 7.4, 0.5 mg/mL microsomes, NADPH, 45 minutes, 37° C., read-out: Half-life in liver microsomes (t1/2). The format is in vitro ADME. As for the experimental part: (§1) Microsomal stability. Microsomal stability assays were conducted on a Beckmann Biomek FXp laboratory automation system. The liver microsomal incubation mixture consisted of liver microsomes (0.5 mg microsomal protein/mL), the Compound (1 μM), MgCl2 (3 mM), and EDTA (1 mM) in potassium phosphate buffer (100 mM, pH 7.4). Midazolam and Ketanserin were used as the assay control substrates. The reaction was initiated with the addition of an NADPH regeneration solution (1.3 mM NADPH) and maintained at 37° C. with shaking. At five time points ranging from 0 to 45 min, aliquots (50 μL) were removed and quenched with acetonitrile (100 μL) containing an internal standard (imipramine). After vortex and centrifugation, samples were analyzed by LC-MS/MS. Calculation of the in vitro half-lives and clearance followed literature guidelines.

Data set [3] can be described thus: Metabolic stability in rat liver microsomes. The format is in vitro ADME. The conditions noted are these: Sprague Dawley, pH 7.4, 0.5 mg/mL microsomes, NADPH, 45 minutes, 37° C., read-out: Half-life in liver microsomes (t1/2). Here is the method:
as §1

The nature of data set [4]: Metabolic stability in mouse liver microsomes. The format is in vitro ADME, CD-1 mouse. The conditions noted are these: CD-1, liver microsomes, pH 7.4, 0.5 mg/mL microsomes, NADPH, 45 minutes, 37° C., read-out: Half-life in liver microsomes (t1/2). As for the experimental part: as §1
A general note: Liver microsomes are a subcellular fraction often used to study metabolism.

Another data set has as its system DOHH2 cells. Kind of data set: DOHH2 Proliferation Assay. The format is cell-based. The conditions noted are these: Homo sapiens, DOHH-2, 168 h; CellTiter-Glo viability on day 7. Here is the method:
DOHH2 Proliferation Assay: On day 1, 1000 DOHH2 cells were seeded to a 384-well TC plate (PerkinElmer #6007680) in 40 μL RPMI 1640 media, followed by the addition of CBP inhibitors except for column 13 where 3.3 μM staurosporine was added as negative control. DMSO was 0.1% in all the wells. The cells were lysed in and counted viability by 40 μL CellTiter-Glo (Promega #G9243) on day 7. The luminescent signal was quantified by Envision Multilabel plate reader and the standard dose response curves were fitted by Genedata Screener software using the variable-slope model: Signal=Signalnegative control+(SignalDMSO control−Signalnegative control)/(1+(IC50/Dose)∧Hill slope).
(§2) Only Signal and Dose in the equation were treated as known values.
In general terms: In ATP-based viability assays light output follows the ATP content of the culture.

For data set [5], the target named is T1, BRD4 (49-170) bromodomain (Homo sapiens, UniProt O60885).
T1 construct: The GST tagged bromodomains of CBP (1081-1197) and BRD4 (49-170) were obtained from BPS Bioscience; purchased BPS Bioscience
The data set can be described thus: BRD4 AlphaScreen assay. As to conditions: binding to biotin-H4 (1-21) Ac-K5/8/12/16. As for the experimental part:
(§3) Specific binding of the CBP or BRD4 bromodomain to the acetylated peptide derived from the H4 histone substrate (tetra acetylated H4 (1-21) Ac—K5/8/12/16) was measured in absence or presence of inhibitors. The GST tagged bromodomains of CBP (1081-1197) and BRD4 (49-170) were obtained from BPS Bioscience and binding to the biotinylated H4 (1-21) Ac—K5/8/12/16 (AnaSpec. 64989) was assessed via AlphaScreen technology (Perkin Elmer).
(§4) BRD4 AlphaScreen assay: The binding of 2.5 nM of BRD4 (49-170) to 10 nM biotin-H4 (1-21) Ac—K5/8/12/16 (AnaSpec. 64989) was assessed following the same procedure described for the CBP assay. The standard dose response curves were fitted by Genedata Screener software using the variable-slope model: Signal=Signalnegative control+(SignalDMSO control−Signalnegative control)/(1+(IC50/Dose)∧Hill slope).
as §2
For orientation: In Alpha technology, singlet oxygen from a donor bead excites a nearby acceptor bead.

Data set [6] addresses T2, GST-CBP (1081-1197) bromodomain (Homo sapiens, UniProt Q92793).
T2 construct: The GST tagged bromodomains of CBP (1081-1197) and BRD4 (49-170) were obtained from BPS Bioscience; purchased BPS Bioscience
The data set can be described thus: CBP AlphaScreen assay. The conditions noted are these: binding to biotin-H4 (1-21) Ac-K5/8/12/16. As for the experimental part: as §3
CBP AlphaScreen assay: 5 nM GST-CBP (1081-1197) and 20 nM biotin-H4 (1-21) Ac—K5/8/12/16 (AnaSpec. 64989) were incubated with varying concentrations of CBP inhibitors in 15 μL of buffer containing 50 mM HEPES 7.5, […], 1 mM TCEP, and 0.003% Tween-20. After 30 minutes incubation at room temperature, 15 μL of detection buffer (BPS Bio. 33006) containing 7 μg/mL of Glutathione AlphaLisa acceptor beads (Perkin Elmer AL109) and 14 μg/mL of Streptavidin donor beads (Perkin Elmer 676002) was then added to the previous mixture. The reaction was incubated for an additional 2 hours at room temperature, and the AlphaScreen signal was quantified using the Envision Multilabel plate reader. As negative control, GST-CBP (1081-1197) was incubated with the non-acetylated biotin-H4 (1-21) peptide (AnaSpec. 62555) and in presence of 0.25% of final DMSO concentration.
as §4, §2

As usually defined, the clearance is the volume of plasma or blood freed of the substance per unit of time. The term IC50 denotes the concentration that inhibits the measured activity by half. Lower therefore signals greater potency.

T2 sequence (Q92793 1081-1197): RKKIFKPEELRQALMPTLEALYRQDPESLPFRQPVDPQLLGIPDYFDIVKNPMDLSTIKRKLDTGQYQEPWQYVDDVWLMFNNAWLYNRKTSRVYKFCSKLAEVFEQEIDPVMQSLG

For `CNC(=O)c1ccc(-c2cc3cccc(-c4nc(C5CCOCC5)n5c4CN(C(=O)NC)CC5)c3cn2)cn1` [Compound 8, reference compound], in data set [1], the clearance is 54.8 mL/min/kg, the half-life was 0.588 h and the Vd was found to be 2 L/kg. Further, in data set [2], the half-life at 1 μM stood at 7.7 h. In addition, in data set [3], the half-life at 1 μM amounted to 9 h. The half-life at 1 μM in data set [4] came to 10.2 h.
Consider `CNC(=O)c1ccc(-c2cc3cccc(-c4nc(C56CCC(CC5)OC6)n5c4CN(C(C)=O)CC5)c3cn2)cn1` [Compound 4, 5-(8-(7-acetyl-3-(2-oxabicyclo[2.2.2]octan-4-yl)-5,6,7,8-tetrahydroimidazo[1,5-α]pyrazin-1-yl)isoquinolin-3-yl)-N-methylpicolinamide], for which the values for the IC50 (in the data set with DOHH2 cells; in data set [5]; in data set [6]) were 676 nM, 17000 nM and 22 nM, respectively.
In the case of `CNC(=O)c1ccc(-c2cc3cccc(-c4nc(C5CC5)n5c4CN(C(C)=O)CC5)c3cn2)cn1` [Compound 2, 5-(8-(7-Acetyl-3-cyclopropyl-5,6,7,8-tetrahydroimidazo[1,5-α]pyrazin-1-yl)isoquinolin-3-yl)-N-methylpicolinamide], the IC50 was 376 nM in the data set with DOHH2 cells, 25000 nM in data set [5] and 15 nM in data set [6].
As for `CNC(=O)c1ccc(-c2cc3ccc(F)c(-c4nc(C5CCOCC5)n5c4CN(C(C)=O)CC5)c3cn2)cn1` [Compound 5, 5-(8-(7-Acetyl-3-(tetrahydro-2H-pyran-4-yl)-5,6,7,8-tetrahydroimidazo[1,5-α]pyrazin-1-yl)-7-fluoroisoquinolin-3-yl)-N-methylpicolinamide], the IC50 is 216 nM with DOHH2 cells, 20400 nM in data set [5] and 34 nM in data set [6].
For `CNC(=O)c1ccc(-c2cc3cccc(-c4nc(C5CCOCC5)n5c4CN(C(C)=O)CC5)c3cn2)cn1` [Compound 3, 5-(8-(7-Acetyl-3-(tetrahydro-2H-pyran-4-yl)-5,6,7,8-tetrahydroimidazo[1,5-α]pyrazin-1-yl)isoquinolin-3-yl)-N-methylpicolinamide], in data set [1] (in words), the “mouse in vivo clearances compared to the structural analogs previously disclosed” value is listed as “dramatic decrease”. For the same molecule, the “mouse in vivo half-lives compared to the structural analogs previously disclosed” value in data set [1] (in words) is recorded as “increase”. The clearance in data set [1] is 11.9 mL/min/kg. Further, the half-life in data set [1] is 2.55 h. The Vd in data set [1] turned out to be 1.84 L/kg. Also, the half-life at 1 μM in data set [2] turned out to be 4.82 h; in data set [3] it was 5.03 h; in data set [4], 8.03 h. The values for the half-inhibitory concentration (IC50) (in the data set with DOHH2 cells; in data set [5]; in data set [6]) were 232 nM, 15000 nM and 16 nM, respectively.
As to `CC(=O)N1CCn2c(C3CCOCC3)nc(-c3c(F)ccc4cc(-c5cnc(C)s5)ncc34)c2C1` [Compound 6, 1-(1-(7-fluoro-3-(2-methylthiazol-5-yl)isoquinolin-8-yl)-3-(tetrahydro-2H-pyran-4-yl)-5,6-dihydroimidazo[1,5-α]pyrazin-7 (8H)-yl)ethan-1-one], the figures for the IC50 (in the data set with DOHH2 cells; in data set [5]; in data set [6]) were 541 nM, 22200 nM and 14 nM, respectively.
